In patent US11419862B2, “Quinoline derivative for treatment of nasopharyngeal carcinoma” (CHIA TAI TIANQING PHARMACEUTICAL GROUP CO., LTD., priority 2018, dated 2022):
Where a name gives a salt, the structure may show the parent alone.

Test system: nasopharyngeal carcinoma
Experiment: Efficacy on nasopharyngeal carcinoma: patient case reports treated orally with capsules of the compound of Example 1
Format: in vivo, human
Parameters: key to evaluation according to RECIST 1.1: CR: complete remission, which means that target lesions of tumors have disappeared and no new lesions appear which is maintained for at least 4 weeks; PR: partial remission, which means 30% or more decrease in the sum of the diameters of target lesions of tumors than the baseline level, which is maintained for at least 4 weeks; PD: the progression of disease, which means 20% or more increase in the diameters of target lesions of tumors than the baseline level; SD: stable disease, which means the sum of diameters of all target leisions neither shrink to qualify for PR nor sufficient increase to qulify for PD
Procedure: During or after radiotherapy, the patients are treated with the capsules of the compound of Example 1 at 12 mg qd. The administration is continuously performed for 2 weeks and rest for 1 week, followed by continuously administrating for 2 weeks and resting for 1 week as a cycle. The target lesions are regularly evaluated, and the treatment regimen is terminated according to the evaluation results.
Subsequently, the patient took orally the capsules of 12 mg of the compound of Example 1 once per day for treatment (continuously administrating for 2 weeks and resting for 1 week as a treatment cycle). […] After 4 cycles of treatment, evaluated as PR according to RECIST 1.1, and the sum of the target lesions was 10 mm, which was reduced by 9 mm from the baseline. After 8 cycles of treatment, the sum of the target lesions was 9 mm, which was reduced by 10 mm from the baseline.
From Mar. 2, 2017, the patient started to take orally the capsules of 12 mg of the compound of Example 1 once per day for treatment (continuously administrating for 2 weeks and resting for 1 week as a treatment cycle). On Apr. […] The treatment with the capsules of the compound of Example 1 was continued.
Three months later, the patient started to take orally the capsules of 12 mg of the compound of Example 1 once per day for treatment (continuously administrating for 2 weeks and resting for 1 week as a treatment cycle). […] The treatment with the capsules of the compound of Example 1 was continued.

[1] = Example 4, patient, 12 mg once per day orally, after 2 cycles
[2] = Example 4, patient, 12 mg once per day orally, after 4 cycles
[3] = Example 4, patient, 12 mg once per day orally, after 8 cycles
[4] = Example 5, patient, 12 mg once per day orally, after 2 cycles
[5] = Example 5, patient, 12 mg once per day orally, after 4 cycles
[6] = Example 5, patient, 12 mg once per day orally, after 6 cycles
[7] = Example 5, patient, 12 mg once per day orally, after 12 cycles
[8] = Example 5, patient, 12 mg once per day orally, after 16 cycles
[9] = Example 6, patient, 12 mg once per day orally, after 2 cycles
[10] = Example 6, patient, 12 mg once per day orally, after 4 cycles

COc1cc2c(Oc3ccc4[nH]c(C)cc4c3F)ccnc2cc1OCC1(N)CC1 [Example 1, 1-[[[4-fluoro-2-methyl-1H-indol-5-yl)oxy-6-methoxyquinolin-7-yl]oxy]methyl]cyclopropylamine dihydrochloride]
evaluation according to RECIST 1.1 (Example 4, patient, 12 mg once per day orally, 2 weeks on/1 week off, after 2 cycles): PR (partial remission, which means 30% or more decrease in the sum of the diameters of target lesions of tumors than the baseline level, which is maintained for at least 4 weeks) | reduction of sum of the target lesions from the baseline [1]: 7 mm | sum of the target lesions [1]: 12 mm | evaluation according to RECIST 1.1 [2]: PR (partial remission, which means 30% or more decrease in the sum of the diameters of target lesions of tumors than the baseline level, which is maintained for at least 4 weeks) | reduction of sum of the target lesions from the baseline [2]: 9 mm | sum of the target lesions [2]: 10 mm | reduction of sum of the target lesions from the baseline [3]: 10 mm | sum of the target lesions [3]: 9 mm | adverse reaction during the administration (Example 4, patient, 12 mg once per day orally, relieved after medication and dosage reduction): Grade 3 hypertension | evaluation according to RECIST 1.1 (Example 5, patient, 12 mg once per day orally, 2 weeks on/1 week off, after 2 cycles): PR (partial remission, which means 30% or more decrease in the sum of the diameters of target lesions of tumors than the baseline level, which is maintained for at least 4 weeks) | reduction of sum of the target lesions from the baseline [4]: 17 mm | sum of the target lesions [4]: 30 mm | evaluation according to RECIST 1.1 [5]: PR (partial remission, which means 30% or more decrease in the sum of the diameters of target lesions of tumors than the baseline level, which is maintained for at least 4 weeks) | reduction of sum of the target lesions from the baseline [5]: 19 mm | sum of the target lesions [5]: 28 mm | evaluation according to RECIST 1.1 [6]: PR (partial remission, which means 30% or more decrease in the sum of the diameters of target lesions of tumors than the baseline level, which is maintained for at least 4 weeks) | reduction of sum of the target lesions from the baseline [6]: 23 mm | sum of the target lesions [6]: 24 mm | evaluation according to RECIST 1.1 [7]: PR (partial remission, which means 30% or more decrease in the sum of the diameters of target lesions of tumors than the baseline level, which is maintained for at least 4 weeks) | reduction of sum of the target lesions from the baseline [7]: 23 mm | sum of the target lesions [7]: 24 mm | evaluation according to RECIST 1.1 [8]: PR (partial remission, which means 30% or more decrease in the sum of the diameters of target lesions of tumors than the baseline level, which is maintained for at least 4 weeks) | reduction of sum of the target lesions from the baseline [8]: 24 mm | sum of the target lesions [8]: 23 mm | evaluation according to RECIST 1.1 (Example 6, patient, 12 mg once per day orally, 2 weeks on/1 week off, after 2 cycles): SD | reduction of sum of the target lesions from the baseline [9]: 18 mm | sum of the target lesions [9]: 47 mm | evaluation according to RECIST 1.1 [10]: PR (partial remission, which means 30% or more decrease in the sum of the diameters of target lesions of tumors than the baseline level, which is maintained for at least 4 weeks) | reduction of sum of the target lesions from the baseline [10]: 23 mm | sum of the target lesions [10]: 42 mm | adverse reaction during the administration (Example 6, patient, alleviated by antihypertensive drugs and dose reduction to 10 mg and 8 mg): Grades 2 and 3 hypertension
